Assay results as given in US8637525B2, “Compounds for the reduction of beta-amyloid production” (Bristol-Myers Squibb Company, priority 2009, dated 2014).
Where two headings read alike, the source gives them in different places.

System: Aβ1-42 production
Assay: Cellular assay for inhibition of Aβ1-42 production (H4 APP751 SWE clone 8.20)
Format: cell-based
Details: H4 APP751 SWE clone 8.20 cells, 19 h incubation
Procedure, shortened: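 Compound-treated cells were incubated 19 h at 37 °C in 5% CO2. Aβ42 in the cell plate was detected overnight at 4 °C with an Aβ42 neoepitope antibody (565, Wallac-labelled, 0.8 ng/well) plus N-terminal antibody 26D6 (APC, 75 ng/well) in 40 mM Tris-HCl pH 7.4, 0.2% BSA. IC50s came from curve fitting.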

[1] = class symbols, read-out: Activity Rating (Aβ42 cellular IC50)
[2] = 19 h, read-out: Activity Rating (Aβ42 cellular IC50), numeric value
[3] = 19 h, class symbols, read-out: Activity Rating (Aβ42 cellular IC50)

Compound: COc1cc(Nc2nc3c(c(N4CC(C)(O)C4)n2)CCC3c2ccc(F)cc2)ccc1-n1cnc(Cl)c1 (stereo not shown) [Example 189, 1-(2-(4-(4-chloro-1H-imidazol-1-yl)-3-methoxyphenylamino)-7-(4-fluorophenyl)-6,7-dihydro-5H-cyclopenta[d]pyrimidin-4-yl)-3-methylazetidin-3-ol]
- IC50 [1]: 1.5 to 9.9 nM

Compound: CCN(C)c1nc(Nc2ccc(-n3cnc(Cl)c3)c(OC)c2)nc2c1CN(C)CC2c1ccc(F)cc1 (stereo not shown) [Example 165B, N2-(4-(4-chloro-1H-imidazol-1-yl)-3-methoxyphenyl)-N4-ethyl-8-(4-fluorophenyl)-N4,6-dimethyl-5,6,7,8-tetrahydropyrido[4,3-d]pyrimidine-2,4-diamine]
- IC50 [2]: 180 nM

Compound: CNc1nc(Nc2ccc(-n3cnc(Cl)c3)c(OC)c2)nc2c1CCCC2(O)c1ccccc1 (stereo not shown) [Example 178, 2-(4-(4-chloro-1H-imidazol-1-yl)-3-methoxyphenylamino)-4-(methylamino)-8-phenyl-5,6,7,8-tetrahydroquinazolin-8-ol]
- IC50 [3]: 1.5 to 9.9 nM

Compound: Cc1ncnn1-c1ccc(Nc2nc3c(c(N(C)C)n2)COCC3c2ccc(Cl)cc2)cc1F (single isomer, unassigned) [Example 67A, 8-(4-chlorophenyl)-N^2-(3-fluoro-4-(5-methyl-1H-1,2,4-triazol-1-yl)phenyl)-N^4,N^4-dimethyl-7,8-dihydro-5H-pyrano[4,3-d]pyrimidine-2,4-diamine]
- IC50 [3]: 10 to 100 nM

Compound: CNc1nc(Nc2ccc(-n3ncnc3C)c(OC)c2)nc2c1CC[C@H]2c1ccc(F)cc1 (single isomer, unassigned) [Example 264A]
- IC50 [3]: 1.5 to 9.9 nM

Compound: COc1cc(Nc2nc3c(c(N4CCN(C)CC4)n2)CCC3c2ccc(F)cc2)ccc1-n1cnc(Cl)c1 (single isomer, unassigned) [Example 30B, N-(4-(4-chloro-1H-imidazol-1-yl)-3-methoxyphenyl)-7-(4-fluorophenyl)-4-(4-methylpiperazin-1-yl)-6,7-dihydro-5H-cyclopenta[d]pyrimidin-2-amine]
- IC50 [2]: 230 nM

Compound: COc1cc(Nc2nc3c(c(N(C)C)n2)CCC3c2ccc(F)cc2)ccc1-n1cnc(Cl)c1 (racemic) [Example 46, N^2-(4-(4-Chloro-1H-imidazol-1-yl)-3-methoxyphenyl)-7-(4-fluorophenyl)-N^4,N^4-dimethyl-6,7-dihydro-5H-cyclopenta[d]pyrimidine-2,4-diamine]
- IC50 [3]: 1.5 to 9.9 nM

Compound: COc1cc(Nc2nc3c(c(N4CC(C)(OC)C4)n2)CCC3c2ccc(F)cc2)ccc1-n1cnc(C)n1 (stereo not shown) [Example 192A, 7-(4-fluorophenyl)-4-(3-methoxy-3-methylazetidin-1-yl)-N-(3-methoxy-4-(3-methyl-1H-1,2,4-triazol-1-yl)phenyl)-6,7-dihydro-5H-cyclopenta[d]pyrimidin-2-amine]
- IC50 (read-out: Activity Rating (Aβ42 cellular IC50), numeric value): 170 nM

Compound: COc1cc(Nc2nc3c(c(N4CCC(C)(N)CC4)n2)CCC3c2ccc(F)cc2)ccc1-n1cnc(Cl)c1 (stereo not shown) [Example 25, 4-(4-amino-4-methylpiperidin-1-yl)-N-(4-(4-chloro-1H-imidazol-1-yl)-3-methoxyphenyl)-7-(4-fluorophenyl)-6,7-dihydro-5H-cyclopenta[d]pyrimidin-2-amine]
- IC50 [3]: 10 to 100 nM

Compound: COc1cc(Nc2nc3c(c(N4CC(F)(F)C4)n2)CCC3c2ccc(Cl)cc2)ccc1-n1cnc(Cl)c1 (stereo not shown) [Example 93, N-(4-(4-Chloro-1H-imidazol-1-yl)-3-methoxyphenyl)-7-(4-chlorophenyl)-4-(3,3-difluoroazetidin-1-yl)-6,7-dihydro-5H-cyclopenta[d]pyrimidin-2-amine]
- IC50 [2]: 20 nM

Compound: COc1cc(Nc2nc3c(c(N4CC(=O)C4)n2)CCC3c2ccccc2)ccc1-n1cnc(Cl)c1 (stereo not shown) [Example 185, 1-(2-(4-(4-chloro-1H-imidazol-1-yl)-3-methoxyphenylamino)-7-phenyl-6,7-dihydro-5H-cyclopenta[d]pyrimidin-4-yl)azetidin-3-one]
- IC50 [3]: 10 to 100 nM

Compound: CCNc1nc(Nc2ccc(-n3cnc(Cl)c3)c(OC)c2)nc2c1CN(S(=O)(=O)CC)CC2c1ccccc1 (stereo not shown) [Example 138A, N2-(4-(4-chloro-1H-imidazol-1-yl)-3-methoxyphenyl)-N4-ethyl-6-(ethylsulfonyl)-8-phenyl-5,6,7,8-tetrahydropyrido[4,3-d]pyrimidine-2,4-diamine]
- IC50 [1]: 1.5 to 9.9 nM

Compound: COc1cc(Nc2nc3c(c(N4CCC(O)(C(F)(F)F)C4)n2)CCC3c2ccc(F)cc2)ccc1-n1cnc(Cl)c1 (single isomer, unassigned) [Example 27, 1-(2-(4-(4-chloro-1H-imidazol-1-yl)-3-methoxyphenylamino)-7-(4-fluorophenyl)-6,7-dihydro-5H-cyclopenta[d]pyrimidin-4-yl)-3-(trifluoromethyl)pyrrolidin-3-ol]
- IC50 [3]: 10 to 100 nM

Compound: COc1cc(Nc2nc(Nc3cc(C(C)C)ccc3C)c3c(n2)C(c2ccccc2)CC3)ccc1-n1cnc(Cl)c1 (stereo not shown) [Example 214, N2-(4-(4-chloro-1H-imidazol-1-yl)-3-methoxyphenyl)-N4-(5-isopropyl-2-methylphenyl)-7-phenyl-6,7-dihydro-5H-cyclopenta[d]pyrimidine-2,4-diamine]
- IC50 [2]: 77 nM

Compound: CNc1nc(Nc2ccc(-n3cnc(C)c3)c(OC)c2)nc2c1COCC2c1ccc(Cl)cc1 (single isomer, unassigned) [Example 70B, 8-(4-chlorophenyl)-N^2-(3-methoxy-4-(4-methyl-1H-imidazol-1-yl)phenyl)-N^4-methyl-7,8-dihydro-5H-pyrano[4,3-d]pyrimidine-2,4-diamine]
- IC50 [1]: 10 to 100 nM

Compound: COc1cc(Nc2nc3c(c(N4C[C@@H]5C[C@H]4CO5)n2)CCC3c2ccc(F)cc2)ccc1-n1cnc(Cl)c1 (single isomer, unassigned) [Example 18A]
- IC50 [2]: 8.8 nM

Compound: CNc1nc(Nc2ccc(-n3cnc(C)n3)c(OC)c2)nc2c1CC[C@H]2c1c(F)cc(F)cc1F (single isomer, unassigned) [Example 270A]
- IC50 [3]: 1.5 to 9.9 nM

Compound: CCNc1nc(Nc2ccc(-n3cnc(Cl)c3)c(OC)c2)nc2c1COCC2c1ccc(F)c(F)c1 (stereo not shown) [Example 113B, N2-(4-(4-chloro-1H-imidazol-1-yl)-3-methoxyphenyl)-8-(3,4-difluorophenyl)-N4-ethyl-7,8-dihydro-5H-pyrano[4,3-d]pyrimidine-2,4-diamine]
- IC50 [1]: 10 to 100 nM

Compound: CNc1nc(Nc2ccc(-c3ccncc3)c(OC)c2)nc2c1CCC2c1ccccc1 (stereo not shown) [Example 262, N2-(3-methoxy-4-(pyridin-4-yl)phenyl)-N4-methyl-7-phenyl-6,7-dihydro-5H-cyclopenta[d]pyrimidine-2,4-diamine]
- IC50 [3]: 1.5 to 9.9 nM

Compound: COc1cc(Nc2nc3c(c(N4CC(F)C4)n2)CCC3c2ccccc2)ccc1-n1cnc(Cl)c1 (stereo not shown) [Example 182B, N-(4-(4-chloro-1H-imidazol-1-yl)-3-methoxyphenyl)-4-(3-fluoroazetidin-1-yl)-7-phenyl-6,7-dihydro-5H-cyclopenta[d]pyrimidin-2-amine]
- IC50 [1]: 10 to 100 nM

Compound: COc1cc(Nc2nc3c(c(N4CC(F)(F)C4)n2)COCC3c2ccc(Cl)cc2)ccc1-n1cnc(Cl)c1 (stereo not shown) [Example 66, N-(4-(4-chloro-1H-imidazol-1-yl)-3-methoxyphenyl)-8-(4-chlorophenyl)-4-(3,3-difluoroazetidin-1-yl)-7,8-dihydro-5H-pyrano[4,3-d]pyrimidin-2-amine]
- IC50 [3]: 10 to 100 nM

Compound: Cc1ncnn1-c1ccc(Nc2nc3c(c(N4CC(F)(F)C4)n2)COCC3c2ccc(Cl)cc2)cc1F (stereo not shown) [Example 68, 8-(4-chlorophenyl)-4-(3,3-difluoroazetidin-1-yl)-N-(3-fluoro-4-(5-methyl-1H-1,2,4-triazol-1-yl)phenyl)-7,8-dihydro-5H-pyrano[4,3-d]pyrimidin-2-amine]
- IC50 [3]: 10 to 100 nM

Compound: COc1cc(Nc2nc3c(c(N4CC(C)(O)C4)n2)CCC3c2ccc(F)cc2)ccc1-n1cnc(Cl)c1 (stereo not shown) [Example 189B, 1-(2-(4-(4-chloro-1H-imidazol-1-yl)-3-methoxyphenylamino)-7-(4-fluorophenyl)-6,7-dihydro-5H-cyclopenta[d]pyrimidin-4-yl)-3-methylazetidin-3-ol]
- IC50 [1]: 10 to 100 nM

Compound: CCN(C)c1nc(Nc2ccc(-n3cnc(Cl)c3)c(OC)c2)nc2c1COCC2c1ccc(F)cc1 (racemic) [Example 62, N2-(4-(4-chloro-1H-imidazol-1-yl)-3-methoxyphenyl)-N4-ethyl-8-(4-fluorophenyl)-N4-methyl-7,8-dihydro-5H-pyrano[4,3-d]pyrimidine-2,4-diamine]
- IC50 [3]: 10 to 100 nM

Compound: Cc1ncnn1-c1ccc(Nc2nc3c(c(N4CC(F)(F)C4)n2)CCC3c2ccc(F)cc2)cc1F (single isomer, unassigned) [Example 16A, 4-(3,3-difluoroazetidin-1-yl)-N-(3-fluoro-4-(5-methyl-1H-1,2,4-triazol-1-yl)phenyl)-7-(4-fluorophenyl)-6,7-dihydro-5H-cyclopenta[d]pyrimidin-2-amine]
- IC50 [1]: 1.5 to 9.9 nM

Compound: CNc1nc(Nc2ccc(-n3cnc(C)n3)c(F)c2)nc2c1CN(S(=O)(=O)C1CC1)CC2c1ccccc1 (stereo not shown) [Example 141, 6-(cyclopropylsulfonyl)-N2-(3-fluoro-4-(3-methyl-1H-1,2,4-triazol-1-yl)phenyl)-N4-methyl-8-phenyl-5,6,7,8-tetrahydropyrido[4,3-d]pyrimidine-2,4-diamine]
- IC50 [1]: 10 to 100 nM

Compound: CNc1nc(Nc2ccc(-n3cnc(C)n3)c(OC)c2)nc2c1CCC2c1ccc(C(F)(F)F)nc1 (stereo not shown) [Example 276, N2-(3-methoxy-4-(3-methyl-1H-1,2,4-triazol-1-yl)phenyl)-N4-methyl-7-(6-(trifluoromethyl)pyridin-3-yl)-6,7-dihydro-5H-cyclopenta[d]pyrimidine-2,4-diamine]
- IC50 [3]: 10 to 100 nM

Compound: COc1cc(Nc2nc3c(c(N4CC(F)(F)C4)n2)CCC3c2cc(F)c(F)c(F)c2)ccc1-n1cnc(Cl)c1 (stereo not shown) [Example 108, N-(4-(4-Chloro-1H-imidazol-1-yl)-3-methoxyphenyl)-4-(3,3-difluoroazetidin-1-yl)-7-(3,4,5-trifluorophenyl)-6,7-dihydro-5H-cyclopenta[d]pyrimidin-2-amine]
- IC50 [2]: 20 nM
